# Experimental data taken from the supplement of paper PMC10307832.
# Legend:
# Assay in all cases: relative viability (nuclei count vs DMSO), 5 days (fraction); higher = more cells survive
# Selisistat + Bortezomib = compound: C1CC(C2=C(C1)C3=C(N2)C=CC(=C3)Cl)C(=O)N [Selisistat] + CC(C)C[C@H](NC(=O)[C@H](Cc1ccccc1)NC(=O)c1cnccn1)B(O)O [Bortezomib] (partner 0.002 µM)
# Procedure, shortened: (§1)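 Values are medians from duplicate plates. Each reflects relative viability, defined as the nuclei count of treated wells over that of vehicle wells. Lung cancer cell lines in 1536-well plates were pin-tool dosed one day after seeding with one drug alone or with a fixed anchor-drug dose plus five library-drug doses (not always all listed) in √10 steps, then fixed, stained and imaged at 4× after 5 days.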
# Serdemetan + Luminespib = compound: c1ccc2c(CCNc3ccc(Nc4ccncc4)cc3)c[nH]c2c1 [Serdemetan] + CCNC(=O)c1noc(-c2cc(C(C)C)c(O)cc2O)c1-c1ccc(CN2CCOCC2)cc1 [Luminespib] (partner 0.01 µM)
# Procedure, shortened: as §1
# Serdemetan + Dasatinib = compound: c1ccc2c(CCNc3ccc(Nc4ccncc4)cc3)c[nH]c2c1 [Serdemetan] + Cc1nc(Nc2ncc(C(=O)Nc3c(C)cccc3Cl)s2)cc(N2CCN(CCO)CC2)n1 [Dasatinib] (partner 0.075 µM)
# Procedure, shortened: as §1
# Selisistat + Decitabine = compound: C1CC(C2=C(C1)C3=C(N2)C=CC(=C3)Cl)C(=O)N [Selisistat] + Nc1ncn([C@H]2C[C@H](O)[C@@H](CO)O2)c(=O)n1 [Decitabine] (partner 2 µM)
# Procedure, shortened: as §1
Cell Line,relative viability (Selisistat + Bortezomib; first compound 0.4 µM),relative viability (Selisistat + Bortezomib; first compound 1.265 µM),relative viability (Selisistat + Bortezomib; first compound 4 µM),relative viability (Selisistat + Bortezomib; first compound 12.65 µM),relative viability (Selisistat + Bortezomib; first compound 40 µM),relative viability (Serdemetan + Luminespib; first compound 0.04 µM),relative viability (Serdemetan + Luminespib; first compound 0.1265 µM),relative viability (Serdemetan + Luminespib; first compound 0.4 µM),relative viability (Serdemetan + Luminespib; first compound 1.265 µM),relative viability (Serdemetan + Luminespib; first compound 4 µM),relative viability (Serdemetan + Dasatinib; first compound 0.04 µM),relative viability (Serdemetan + Dasatinib; first compound 0.1265 µM),relative viability (Serdemetan + Dasatinib; first compound 0.4 µM),relative viability (Serdemetan + Dasatinib; first compound 1.265 µM),relative viability (Serdemetan + Dasatinib; first compound 4 µM),relative viability (Selisistat + Decitabine; first compound 0.4 µM),relative viability (Selisistat + Decitabine; first compound 1.265 µM),relative viability (Selisistat + Decitabine; first compound 12.65 µM),relative viability (Selisistat + Decitabine; first compound 40 µM),relative viability (Selisistat + Decitabine; first compound 4 µM)
NCI-H1563,0.855,0.753,0.752,0.789,0.581,0.499,0.481,0.555,0.458,0.436,0.496,0.466,0.452,0.457,0.461,,,,,
NCI-H1623,,,,,,0.498,0.481,0.432,0.551,0.427,0.549,0.628,0.359,0.442,0.562,,,,,
NCI-H1648,,,,,,,,,,,,,,,,0.477,0.45,0.406,0.551,
NCI-H1703,0.293,0.286,0.301,0.266,0.332,,,,,,,,,,,,,,,
NCI-H1793,,,,,,0.17,0.186,0.343,0.169,0.165,0.355,0.308,0.383,0.21,0.259,0.489,0.459,0.552,0.616,
NCI-H1944,,,,,,0.664,0.679,0.691,0.249,0.306,0.201,0.212,0.218,0.131,0.164,0.506,0.402,0.452,0.465,0.441
NCI-H2170,,,,,,0.643,0.596,0.807,0.459,0.56,0.437,0.612,0.474,0.513,0.569,0.481,0.474,0.53,0.47,0.458
NCI-H2228,1.01,1.01,0.971,0.923,1,0.119,0.201,0.159,0.16,0.145,0.44,0.473,0.485,0.188,0.184,,,,,
NCI-H2342,,,,,,0.738,0.722,0.704,0.508,0.506,0.309,0.302,0.291,0.28,0.301,0.734,0.772,0.704,0.874,0.689
SK-MES-1,,,,,,0.789,0.731,0.799,0.617,0.772,0.337,0.378,0.327,0.379,0.267,0.397,0.446,0.325,0.331,0.312
SW 900,,,,,,0.185,0.168,0.196,0.164,0.176,0.502,0.471,0.484,0.385,0.345,0.446,0.401,0.517,0.5,0.42
